Measurements published in paper PMC10418113 (bioRxiv, 2023).

Assays:
BCKDC (E2 subunit DBT) = BCKDC (E2 subunit DBT) (Mus musculus, UniProt P53395); assay: BCKDC activity of matrix lysate after preincubation, isovaleryl-CoA by LCMS; assay type: biochemical; details: read-out: % inhibition at 0.1 μM
[1] = target: T1, DLD (E3 subunit of purified porcine PDHC) (Sus scrofa, UniProt P09623); assay: diaphorase activity, NBT-formazan at […] nm and in-gel; assay type: biochemical; details: 0.1 mg/mL NADH, 0.2 mg/mL NBT, 50 mM potassium phosphate pH 7.0
T1 sequence (P09623 36-509): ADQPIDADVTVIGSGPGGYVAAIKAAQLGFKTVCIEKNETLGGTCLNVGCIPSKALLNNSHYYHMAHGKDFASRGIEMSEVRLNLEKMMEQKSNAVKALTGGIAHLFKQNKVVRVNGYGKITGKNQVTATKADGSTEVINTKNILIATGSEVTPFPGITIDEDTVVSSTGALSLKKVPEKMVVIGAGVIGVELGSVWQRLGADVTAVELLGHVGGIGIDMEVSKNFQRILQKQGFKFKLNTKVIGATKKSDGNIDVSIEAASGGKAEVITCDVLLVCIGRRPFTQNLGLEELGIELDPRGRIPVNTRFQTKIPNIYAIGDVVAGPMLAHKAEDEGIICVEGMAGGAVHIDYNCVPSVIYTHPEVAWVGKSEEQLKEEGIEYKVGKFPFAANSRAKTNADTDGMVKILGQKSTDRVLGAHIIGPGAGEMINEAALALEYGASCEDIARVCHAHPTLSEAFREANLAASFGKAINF

Sequence of BCKDC (E2 subunit DBT) (P53395 62-482): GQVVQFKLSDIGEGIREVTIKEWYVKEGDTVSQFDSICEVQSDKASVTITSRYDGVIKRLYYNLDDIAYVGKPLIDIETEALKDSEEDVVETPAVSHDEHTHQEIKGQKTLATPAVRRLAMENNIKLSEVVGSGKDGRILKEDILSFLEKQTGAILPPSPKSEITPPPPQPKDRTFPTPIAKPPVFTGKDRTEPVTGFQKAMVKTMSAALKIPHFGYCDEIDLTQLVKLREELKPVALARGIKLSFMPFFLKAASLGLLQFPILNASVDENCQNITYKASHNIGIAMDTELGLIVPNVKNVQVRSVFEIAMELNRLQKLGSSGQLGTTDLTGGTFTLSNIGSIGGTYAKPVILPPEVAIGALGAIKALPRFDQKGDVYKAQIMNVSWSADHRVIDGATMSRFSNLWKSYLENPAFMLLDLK
Sequence of BCKDC (E2 subunit DBT) (P50136 43-442 partner): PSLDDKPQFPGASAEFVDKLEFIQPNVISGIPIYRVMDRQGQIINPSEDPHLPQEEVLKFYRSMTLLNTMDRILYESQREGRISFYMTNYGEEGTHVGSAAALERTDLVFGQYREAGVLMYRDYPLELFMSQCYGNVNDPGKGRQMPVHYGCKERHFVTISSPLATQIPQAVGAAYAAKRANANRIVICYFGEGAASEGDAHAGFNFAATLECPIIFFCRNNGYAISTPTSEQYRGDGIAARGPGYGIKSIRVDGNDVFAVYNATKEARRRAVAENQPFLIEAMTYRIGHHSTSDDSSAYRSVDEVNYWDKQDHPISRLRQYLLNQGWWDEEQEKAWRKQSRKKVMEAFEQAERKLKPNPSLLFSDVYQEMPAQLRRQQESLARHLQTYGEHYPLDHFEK
Sequence of BCKDC (E2 subunit DBT) (Q6P3A8 49-390 partner): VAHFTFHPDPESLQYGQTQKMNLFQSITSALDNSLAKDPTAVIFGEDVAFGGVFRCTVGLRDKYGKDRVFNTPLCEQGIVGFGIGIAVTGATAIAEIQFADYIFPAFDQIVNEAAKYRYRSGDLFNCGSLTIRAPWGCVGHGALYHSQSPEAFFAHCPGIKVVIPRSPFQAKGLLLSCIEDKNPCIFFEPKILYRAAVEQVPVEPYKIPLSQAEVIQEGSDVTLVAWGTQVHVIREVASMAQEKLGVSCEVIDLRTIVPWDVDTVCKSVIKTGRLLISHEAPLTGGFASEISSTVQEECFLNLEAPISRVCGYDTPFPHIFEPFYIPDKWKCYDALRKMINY
Sequence of BCKDC (E2 subunit DBT) (O08749 36-509 partner): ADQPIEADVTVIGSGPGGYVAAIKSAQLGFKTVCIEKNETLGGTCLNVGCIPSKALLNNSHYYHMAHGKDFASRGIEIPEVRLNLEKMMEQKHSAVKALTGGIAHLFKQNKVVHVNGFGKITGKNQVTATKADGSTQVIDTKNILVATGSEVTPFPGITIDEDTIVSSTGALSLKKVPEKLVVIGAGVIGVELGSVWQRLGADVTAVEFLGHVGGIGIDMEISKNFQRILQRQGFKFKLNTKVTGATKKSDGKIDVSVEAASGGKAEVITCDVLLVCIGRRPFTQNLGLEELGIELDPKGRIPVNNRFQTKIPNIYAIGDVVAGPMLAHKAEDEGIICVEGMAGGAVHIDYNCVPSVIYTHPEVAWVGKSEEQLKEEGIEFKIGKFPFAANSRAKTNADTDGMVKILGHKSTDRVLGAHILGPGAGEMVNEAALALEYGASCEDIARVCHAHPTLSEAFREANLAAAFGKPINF

Row | Structure (SMILES) | inhibition at 0.1 µM (BCKDC (E2 subunit DBT)) [%] | diaphorase activity, NBT-formazan at 568 nm and in-gel [1]
1 | CC(C)(COP(=O)(O)OP(=O)(O)OC[C@H]1O[C@@H](n2cnc3c(N)ncnc32)[C@H](O)[C@@H]1OP(=O)(O)O)[C@@H](O)C(=O)NCCC(=O)NCCSN=O [SNO-CoA] | > 50 | 
2 | NC(=O)C1=CN([C@@H]2O[C@H](COP(=O)(O)OP(=O)(O)OC[C@H]3O[C@@H](n4cnc5c(N)ncnc54)[C@H](O)[C@@H]3O)[C@@H](O)[C@H]2O)C=CC1 [NADH] |  | As a blank control, the same amount of mitochondria lysate was mixed with assay buffer without NADH
